Data as given in patent US20240390499A1, “METHOD” (OSLO UNIVERSITETSSYKEHUS HF, priority 2021, published 2024).

How the values were obtained:
M059K cells = assay: MTT cell viability assay, DZ325 + cercosporin (FIG. 2); type: cell-based, human
Procedure: FIG. 2—Cell viability of M059K cells: Compound DZ325+cercosporin.
(§1) The efficacy of the chemiluminescent compounds DZ325 and EK297 was tested in cell cultures of human glioblastoma multiforme cell lines (U87, T98G, M059K and LN-18).
(§2) The cells were inoculated in 96-well plates and left to attach overnight at 37° C. in a 5% CO2, humidified atmosphere. Subsequently the cells were incubated with (i) the photosensitizer (cercosporin) or the photosensitizer precursor (5-ALA, for the generation of the photosensitizer PpIX); and (ii) the compound at the appropriate concentration. In the case of 5-ALA, its introduction to the cell culture preceded that of the chemiluminescent compound by 1 hour to ensure adequate PpIX production. In the case of cercosporin, it was administered at the same time as the chemiluminescent compound. […]
(§3) 24 hours from the introduction of the chemiluminescent compounds to the cells, the cell media was removed and replaced with 100 μL of media containing 0.5 mg/mL thiazolyl blue salts for the performance of a standard MTT viability assay. […] The endpoint absorbance measurement was made at 561 nm. […] The experimental cell viability of the combined treatment (photosensitizer+chemiluminescent compound) was compared to the theoretical additive treatment of the photosensitizer+chemiluminescent compound which was calculated as follows: […]

LN18 cells = assay: MTT cell viability assay, DZ325 + cercosporin (FIG. 1); type: cell-based, human
Procedure: FIG. 1—Cell viability of LN18 cells: Compound DZ325+cercosporin.
as §1, §2, §3

[1] = system: human glioblastoma multiforme cell lines (U87, T98G, M059K and LN-18); assay: MTT cell viability assay, chemiluminescent compound plus photosensitizer (FIG. 3); type: cell-based
Procedure: as §1
The cells were inoculated in 96-well plates and left to attach overnight at 37° C. in a 5% CO2, humidified atmosphere. Subsequently the cells were incubated with (i) the photosensitizer (cercosporin) or the photosensitizer precursor (5-ALA, for the generation of the photosensitizer PpIX); and (ii) the compound at the appropriate concentration. In the case of 5-ALA, its introduction to the cell culture preceded that of the chemiluminescent compound by 1 hour to ensure adequate PpIX production. In the case of cercosporin, it was administered at the same time as the chemiluminescent compound.
The chemiluminescent compounds were prepared as 50 mM stock solutions in DMSO (or 1-methyl-2-pyrrolidone) and diluted in cell media to their final concentrations. Cercosporin was prepared as a 4 mM solution in DMSO and appropriately diluted in cell media. 5-ALA was made to its final concentration in Optimem. In the case of the luminol-based compound (DZ325), Cu was in some cases added to the cell media in the form of CuSO4 at a final concentration of 100 μM.
24 hours from the introduction of the chemiluminescent compounds to the cells, the cell media was removed and replaced with 100 μL of media containing 0.5 mg/mL thiazolyl blue salts for the performance of a standard MTT viability assay. The MTT containing medium was left to incubate for 1 to 3 hours and then removed and replaced with 100 μL DMSO. The endpoint absorbance measurement was made at 561 nm. Media only controls were used as 100% cell viability controls. The experimental cell viability of the combined treatment (photosensitizer+chemiluminescent compound) was compared to the theoretical additive treatment of the photosensitizer+chemiluminescent compound which was calculated as follows:
In each figure, one example of synergy is highlighted. […] Calculated cell viability is determined according to the following equation (in which “PS”=photosensitizer; “CL”=chemiluminescent agent): […]

Cc1ccc(S(=O)(=O)NCCCNc2cccc3c(=O)[nH][nH]c(=O)c23)cc1 [DZ325, N-(3-((1,4-dioxo-1,2,3,4-tetrahydrophthalazin-5-yl)amino)propyl)-4-methylbenzenesulfonamide]
synergy between chemiluminescent compound and photosensitizer (M059K cells): synergy | synergy between chemiluminescent compound and photosensitizer (LN18 cells): synergy

Cc1ccc(S(=O)(=O)N2CCN(C(=O)c3cc(Br)c(OC(=O)c4c5ccccc5[n+](C)c5ccccc45)c(Br)c3)CC2)cc1.O=S(=O)([O-])C(F)(F)F [EK297, 9-((2,6-dibromo-4-(4-tosylpiperazine-1-carbonyl)phenoxy)carbonyl)-10-methylacridin-10-ium trifluoromethanesulfonate]
experimental cell viability of combined treatment ([1]; 3 μM cercosporin+400 μM EK297, MTT 24 hours, FIG. 3): 21.5% | calculated cell viability (theoretical additive) ([1]; 3 μM cercosporin+400 μM EK297, calculated from single-agent viabilities): 59.5% | synergy between chemiluminescent compound and photosensitizer ([1]; EK297 with cercosporin, experimental vs calculated viability): cytotoxic synergy | viability at 400 µM ([1]; Homo sapiens, 400 μM EK297 alone, MTT 24 hours, FIG. 3, cell line not stated, read-out: cell viability (printed as 'toxicity')): 74.5%

COc1c(CC(C)O)c2c3c(CC(C)O)c(OC)c(=O)c4c(O)cc5c(c6c(cc(O)c(c1=O)c62)OCO5)c43 (stereo not shown) [cercosporin, reference compound]
viability at 3 µM ([1]; Homo sapiens, 24 h, read-out: cell viability): 80%
